Legend:
[1] = test system: non-iron-overloaded, bile duct-cannulated rat; experiment: Iron excretion in the non-iron-overloaded, bile duct-cannulated rat; assay type: in vivo; conditions: 150 μmol/kg p.o., solution in 40% Cremophor-H2O, rats fasted for 24 hours
Method: Preparation of Drugs. Drug solutions were prepared in 60% water, 40% Cremophor RH-40.
Initial testing of 1 was performed in the non-iron-overloaded, bile duct-cannulated rat [J. Med. Chem., Vol. 34, Bergeron et al, “Synthesis and Biological Evaluation of Hydroxamate-Based Iron Chelators,” pages 3182-3187 (1991)]. The drug was prepared as a solution in 40% Cremophor-H2O and administered at a dose of 150 μmol/kg p.o. The rats were fasted for 24 hours before dosing. The efficiency of iron excretion induced by 1 was 2.4±0.92%.

[2] = test system: iron-overloaded primate model; conditions: po, 150 umol/kg, 24 h
Method: The drug was prepared as a solution in 40% Cremophor-H2O and administered at a dose of 1.50 μmol/kg p.o. The monkeys were fasted for 24 hours before dosing.

[3] = test system: animal models; conditions: literature; cited from earlier work

| Structure (SMILES) | efficiency of iron excretion [1] | efficiency (iron excretion) [2] | clearing iron [3] |
| --- | --- | --- | --- |
| O=C(O)[C@H]1CSC(c2ccc(O)cc2O)=N1 [Compound 1, 4,5-dihydro-2-(2,4-dihydroxyphenyl)-thiazole-4(S)-carboxylic acid] | 2.4±0.92% | 4.2±1.4% | – |
| O=C(N[C@H]1COC(=O)[C@@H](NC(=O)c2cccc(O)c2O)COC(=O)[C@@H](NC(=O)c2cccc(O)c2O)COC1=O)c1cccc(O)c1O [enterobactin] | – | – | only marginally effective |
| CC(=O)N(O)CCC[C@@H]1NC(=O)[C@H](CCCN(O)C(C)=O)NC1=O [rhodotorulic acid] | – | – | reasonably active |

Reference: US8008502B2, “Thiazoline acid derivatives” (University of Florida Research Foundation, Inc., priority 1998, dated 2011)
